Test results taken from USRE48461E1, “Modulation of androgen receptor expression” (Ionis Pharmaceuticals, Inc., priority 2012, dated 2021).
Oligonucleotides are written 5' to 3', each unit as a sugar letter and its base; * is a phosphorothioate linkage, no mark a phosphodiester; rarer units and linkages stand in square brackets, end groups in braces. Plain capitals give the bases only. e = 2'-O-(2-methoxyethyl) (MOE); k = constrained ethyl (cEt); [5mC] = 5-methylcytosine; d = 2'-deoxy (DNA)

Columns and labels:
AR mRNA [1] = assay: Antisense inhibition of human AR in HuVEC cells, single concentration (electroporation, qRT-PCR RTS3559); assay type: cell-based; settings: ~24 h
Experimental: Antisense oligonucleotides were designed targeting an AR nucleic acid and were tested for their effects on AR mRNA in vitro. The antisense oligonucleotides were tested in a series of experiments that had similar culture conditions. […] Human primer probe set RTS3559 (forward sequence [NT], designated herein as SEQ ID NO: 9; reverse sequence [NT], designated herein as SEQ ID NO: 10; probe sequence [NT], designated herein as SEQ ID NO: 11) was used to measure mRNA levels. AR mRNA levels were adjusted according to total RNA content, as measured by RIBOGREEN®. […] A total of 155 oligonucleotides were tested. Additional antisense oligonucleotides were designed targeting an AR nucleic acid and were tested for their effects on AR mRNA in vitro. […] Human primer probe set RTS3559 was used to measure mRNA levels. AR mRNA levels were adjusted according to total RNA content, as measured by RIBOGREEN®. […] A total of 82 oligonucleotides were tested. Additional antisense oligonucleotides were designed targeting an AR nucleic acid and were tested for their effects on AR mRNA in vitro. […] Human primer probe set RTS3559 was used to measure mRNA levels. AR mRNA levels were adjusted according to total RNA content, as measured by RIBOGREEN®. […] A total of 40 oligonucleotides were tested. Additional antisense oligonucleotides were designed targeting an AR nucleic acid and were tested for their effects on AR mRNA in vitro. […] Human primer probe set RTS3559 was used to measure mRNA levels. AR mRNA levels were adjusted according to total RNA content, as measured by RIBOGREEN®. […] A total of 75 oligonucleotides were tested. Additional antisense oligonucleotides were designed targeting an AR nucleic acid and were tested for their effects on AR mRNA in vitro. […] Human primer probe set RTS3559 was used to measure mRNA levels. AR mRNA levels were adjusted according to total RNA content, as measured by RIBOGREEN®. […] A total of 616 oligonucleotides were tested. Additional antisense oligonucleotides were designed targeting an AR nucleic acid and were tested for their effects on AR mRNA in vitro. […] Human primer probe set RTS3559 was used to measure mRNA levels. AR mRNA levels were adjusted according to total RNA content, as measured by RIBOGREEN®. […] A total of 385 oligonucleotides were tested.

AR mRNA [2] = assay: Dose-dependent antisense inhibition of human AR in HuVEC cells (electroporation, qRT-PCR RTS3559, IC50); assay type: cell-based; settings: HuVEC, ~16 h
Experimental: (§1) After a treatment period of approximately 16 hours, RNA was isolated from the cells and AR mRNA levels were measured by quantitative real-time PCR. Human AR primer probe set RTS3559 was used to measure mRNA levels. AR mRNA levels were adjusted according to total RNA content, as measured by RIBOGREEN®. […] The antisense oligonucleotides were tested in a series of experiments that had similar culture conditions.
as §1, §1, §1, §1
(§2) After a treatment period of approximately 16 hours, RNA was isolated from the cells and AR mRNA levels were measured by quantitative real-time PCR. Human AR primer probe set RTS3559 was used to measure mRNA levels. AR mRNA levels were adjusted according to total RNA content, as measured by RIBOGREEN®.
as §2

[3] = 500 nM ASO, electroporation, Table 1

Substance: 549332 (kG*k[5mC]*kG*d[5mC]*dT*d[5mC]*dT*dG*dA*d[5mC]*dA*dG*d[5mC]*k[5mC]*kT*k[5mC]; antisense) [compound 549332]
- % inhibition (AR mRNA [1]; [3]): 84%
- percent inhibition of AR (AR mRNA [2]; 55.6 nM, Table 4): 35%
- percent inhibition of AR (AR mRNA [2]; 166.7 nM, Table 4): 57%
- percent inhibition of AR (AR mRNA [2]; 500.0 nM, Table 4): 79%
- percent inhibition of AR (AR mRNA [2]; 1500.0 nM, Table 4): 79%
- IC50 (AR mRNA [2]; Table 4): 0.104 µM

Substance: 549334 (k[5mC]*kA*k[5mC]*d[5mC]*dT*dG*d[5mC]*dG*dG*dG*dA*dA*dG*k[5mC]*kT*k[5mC]; antisense) [compound 549334]
- % inhibition (AR mRNA [1]; [3]): 83%
- percent inhibition of AR (AR mRNA [2]; 55.6 nM, Table 4): 29%
- percent inhibition of AR (AR mRNA [2]; 166.7 nM, Table 4): 46%
- percent inhibition of AR (AR mRNA [2]; 500.0 nM, Table 4): 63%
- percent inhibition of AR (AR mRNA [2]; 1500.0 nM, Table 4): 72%
- IC50 (AR mRNA [2]; Table 4): 0.253 µM

Substance: 549338 (kG*kG*k[5mC]*dT*dG*dT*dG*dA*dT*dG*dA*dT*dG*k[5mC]*kG*kG; antisense) [compound 549338]
- % inhibition (AR mRNA [1]; [3]): 83%
- percent inhibition of AR (AR mRNA [2]; 55.6 nM, Table 4): 32%
- percent inhibition of AR (AR mRNA [2]; 166.7 nM, Table 4): 47%
- percent inhibition of AR (AR mRNA [2]; 500.0 nM, Table 4): 67%
- percent inhibition of AR (AR mRNA [2]; 1500.0 nM, Table 4): 78%
- IC50 (AR mRNA [2]; Table 4): 0.154 µM

Substance: 549345 (kT*k[5mC]*kT*dG*dG*dA*dA*d[5mC]*dA*dG*dA*dT*dT*k[5mC]*kT*kG; antisense) [compound 549345]
- % inhibition (AR mRNA [1]; [3]): 82%

Substance: 549347 (k[5mC]*kT*kT*d[5mC]*dG*d[5mC]*dG*d[5mC]*dA*d[5mC]*dG*d[5mC]*dT*k[5mC]*kT*kG; antisense) [compound 549347]
- % inhibition (AR mRNA [1]; [3]): 84%
- percent inhibition of AR (AR mRNA [2]; 55.6 nM, Table 4): 15%
- percent inhibition of AR (AR mRNA [2]; 166.7 nM, Table 4): 37%
- percent inhibition of AR (AR mRNA [2]; 500.0 nM, Table 4): 62%
- percent inhibition of AR (AR mRNA [2]; 1500.0 nM, Table 4): 71%
- IC50 (AR mRNA [2]; Table 4): 0.357 µM

Substance: 549358 (kA*kT*kG*dG*dT*dG*d[5mC]*dT*dG*dG*d[5mC]*d[5mC]*dT*k[5mC]*kG*k[5mC]; antisense) [compound 549358]
- % inhibition (AR mRNA [1]; [3]): 91%
- percent inhibition of AR (AR mRNA [2]; 55.6 nM, Table 3): 29%
- percent inhibition of AR (AR mRNA [2]; 166.7 nM, Table 3): 63%
- percent inhibition of AR (AR mRNA [2]; 500.0 nM, Table 3): 85%
- percent inhibition of AR (AR mRNA [2]; 1500.0 nM, Table 3): 95%
- IC50 (AR mRNA [2]; Table 3): 0.141 µM

Substance: 549360 (kG*kG*kT*d[5mC]*dG*dA*dA*dG*dT*dG*d[5mC]*d[5mC]*d[5mC]*k[5mC]*k[5mC]*kT; antisense) [compound 549360]
- % inhibition (AR mRNA [1]; [3]): 89%
- percent inhibition of AR (AR mRNA [2]; 55.6 nM, Table 3): 44%
- percent inhibition of AR (AR mRNA [2]; 166.7 nM, Table 3): 58%
- percent inhibition of AR (AR mRNA [2]; 500.0 nM, Table 3): 79%
- percent inhibition of AR (AR mRNA [2]; 1500.0 nM, Table 3): 83%
- IC50 (AR mRNA [2]; Table 3): 0.116 µM

Substance: 549361 (kG*kA*k[5mC]*dA*d[5mC]*d[5mC]*dG*dA*d[5mC]*dA*d[5mC]*dT*dG*k[5mC]*k[5mC]*kT; antisense) [compound 549361]
- % inhibition (AR mRNA [1]; [3]): 84%
- percent inhibition of AR (AR mRNA [2]; 55.6 nM, Table 3): 12%
- percent inhibition of AR (AR mRNA [2]; 166.7 nM, Table 3): 30%
- percent inhibition of AR (AR mRNA [2]; 500.0 nM, Table 3): 52%
- percent inhibition of AR (AR mRNA [2]; 1500.0 nM, Table 3): 66%
- IC50 (AR mRNA [2]; Table 3): 0.525 µM

Substance: 549386 (kG*k[5mC]*kT*dT*d[5mC]*dA*dT*d[5mC]*dT*d[5mC]*d[5mC]*dA*d[5mC]*kA*kG*kA; antisense) [compound 549386]
- % inhibition (AR mRNA [1]; [3]): 77%

Substance: 569214 (antisense kG*kG*kT*dT*dG*dA*dT*dT*dT*dA*dA*dT*kG*kG*kT*eT) [compound 569214]
- percent inhibition of AR (AR mRNA [2]; 62.5 nM, Table 12): 20%
- percent inhibition of AR (AR mRNA [2]; 125.0 nM, Table 12): 26%
- percent inhibition of AR (AR mRNA [2]; 500.0 nM, Table 12): 62%
- percent inhibition of AR (AR mRNA [2]; 1000.0 nM, Table 12): 76%
- IC50 (AR mRNA [2]; Table 12): 0.265 µM

Substance: 569217 (antisense eG*kT*kT*kG*dA*dT*dT*dT*dA*dA*dT*dG*kG*kT*kT*eG) [compound 569217]
- percent inhibition of AR (AR mRNA [2]; 62.5 nM, Table 12): 34%
- percent inhibition of AR (AR mRNA [2]; 125.0 nM, Table 12): 39%
- percent inhibition of AR (AR mRNA [2]; 500.0 nM, Table 12): 64%
- percent inhibition of AR (AR mRNA [2]; 1000.0 nM, Table 12): 64%
- IC50 (AR mRNA [2]; Table 12): 0.247 µM

Substance: 579669 (antisense eG*kG*kT*eT*eG*kA*kT*dT*dT*dA*dA*dT*dG*dG*kT*kT) [compound 579669]
- percent inhibition of AR (AR mRNA [2]; 62.5 nM, Table 11): 24%
- percent inhibition of AR (AR mRNA [2]; 125.0 nM, Table 11): 39%
- percent inhibition of AR (AR mRNA [2]; 500.0 nM, Table 11): 74%
- percent inhibition of AR (AR mRNA [2]; 1000.0 nM, Table 11): 91%
- IC50 (AR mRNA [2]; Table 11): 0.207 µM

Substance: 579670 (antisense eT*kG*kA*eT*kT*kT*dA*dA*dT*dG*dG*dT*dT*kG*k[5mC]*kA) [compound 579670]
- percent inhibition of AR (AR mRNA [2]; 62.5 nM, Table 11): 27%
- percent inhibition of AR (AR mRNA [2]; 125.0 nM, Table 11): 28%
- percent inhibition of AR (AR mRNA [2]; 500.0 nM, Table 11): 75%
- percent inhibition of AR (AR mRNA [2]; 1000.0 nM, Table 11): 70%
- IC50 (AR mRNA [2]; Table 11): 0.236 µM

Substance: 579672 (antisense eG*kT*kT*eG*kA*kT*dT*dT*dA*dA*dT*dG*dG*kT*kT*kG) [compound 579672]
- percent inhibition of AR (AR mRNA [2]; 62.5 nM, Table 11): 9%
- percent inhibition of AR (AR mRNA [2]; 125.0 nM, Table 11): 30%
- percent inhibition of AR (AR mRNA [2]; 500.0 nM, Table 11): 72%
- percent inhibition of AR (AR mRNA [2]; 1000.0 nM, Table 11): 86%
- IC50 (AR mRNA [2]; Table 11): 0.258 µM

Substance: 585233 (kA*kG*kT*dT*dG*dT*dA*dG*dT*dA*dG*kT*e[5mC]*eG*e[5mC]*eG) [compound 585233]
- % inhibition (AR mRNA [1]; 1,000 nM ASO, Table 13): 69%

Substance: 585259 (eA*kA*kG*kT*dT*dG*dT*dA*dG*dT*dA*dG*dT*k[5mC]*kG*k[5mC]) [compound 585259]
- % inhibition (AR mRNA [1]; 1,000 nM ASO, Table 13): 71%

Substance: 585262 (kA*kA*kG*dT*dT*dG*dT*dA*dG*dT*dA*dG*kT*k[5mC]*kG*e[5mC]) [compound 585262]
- % inhibition (AR mRNA [1]; 1,000 nM ASO, Table 13): 77%

Substance: 585263 (kA*kA*kG*dT*dT*dG*dT*dA*dG*dT*dA*kG*kT*k[5mC]*eG*e[5mC]) [compound 585263]
- % inhibition (AR mRNA [1]; 1,000 nM ASO, Table 13): 69%

Substance: 585264 (kA*kA*kG*dT*dT*dG*dT*dA*dG*dT*kA*kG*kT*e[5mC]*eG*e[5mC]) [compound 585264]
- % inhibition (AR mRNA [1]; 1,000 nM ASO, Table 13): 62%

Substance: 585265 (eA*eA*kG*kT*dT*dG*dT*dA*dG*dT*dA*dG*kT*k[5mC]*eG*e[5mC]) [compound 585265]
- % inhibition (AR mRNA [1]; 1,000 nM ASO, Table 13): 69%

Substance: 585268 (kA*eA*kG*eT*dT*dG*dT*dA*dG*dT*dA*dG*eT*k[5mC]*eG*k[5mC]) [compound 585268]
- % inhibition (AR mRNA [1]; 1,000 nM ASO, Table 13): 72%

Substance: 585269 (eA*kA*eG*kT*dT*dG*dT*dA*dG*dT*dA*dG*eT*k[5mC]*eG*k[5mC]) [compound 585269]
- % inhibition (AR mRNA [1]; 1,000 nM ASO, Table 13): 73%

Substance: 585271 (eA*kA*kG*dT*dT*dG*dT*dA*dG*dT*dA*dG*dT*k[5mC]*kG*e[5mC]) [compound 585271]
- % inhibition (AR mRNA [1]; 1,000 nM ASO, Table 13): 57%

Substance: 585274 (kA*kA*kG*dT*dT*dG*dT*dA*dG*dT*dA*dG*dT*k[5mC]*kG*e[5mC]) [compound 585274]
- % inhibition (AR mRNA [1]; 1,000 nM ASO, Table 13): 65%
